Publication PMC10298982, “Stability Characterization of the Novel Anti-Cancer HM-10/10 HDL-Mimetic Peptide” (International Journal of Molecular Sciences, 2023)
Ends that are not written are not given here.

Assays:
[1] = biological target: CYP3A4 (Homo sapiens, UniProt P08684); assay: CYP450 time-dependent inhibition, CYP3A4 (midazolam and testosterone substrates), pooled human liver microsomes; assay type: in vitro ADME
[2] = in vitro; conditions: Sprague-Dawley, rat, plasma, pH 7.4
[3] = in vitro; conditions: CD-1, mouse, plasma, pH 7.4
[4] = biological target: T1, CYP1A2 (Homo sapiens, UniProt P05177); conditions: microsomes
T1 sequence (P05177 1-516): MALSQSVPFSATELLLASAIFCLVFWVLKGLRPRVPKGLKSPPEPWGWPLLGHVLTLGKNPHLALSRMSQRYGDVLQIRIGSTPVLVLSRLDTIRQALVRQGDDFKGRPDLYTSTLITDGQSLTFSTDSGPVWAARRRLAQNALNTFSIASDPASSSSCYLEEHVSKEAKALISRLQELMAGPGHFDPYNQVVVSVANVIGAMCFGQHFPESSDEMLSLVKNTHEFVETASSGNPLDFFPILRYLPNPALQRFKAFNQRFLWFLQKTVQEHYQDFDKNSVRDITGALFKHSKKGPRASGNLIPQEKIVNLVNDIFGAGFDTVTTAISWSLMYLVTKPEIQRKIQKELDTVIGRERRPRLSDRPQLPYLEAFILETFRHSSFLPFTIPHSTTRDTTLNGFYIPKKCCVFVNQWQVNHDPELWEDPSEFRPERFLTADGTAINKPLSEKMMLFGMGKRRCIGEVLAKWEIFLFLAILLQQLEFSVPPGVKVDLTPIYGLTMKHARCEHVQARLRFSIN

[5] = Test article stability over 24 h incubation with hepatocytes in the induction assay; assay type: in vitro ADME, human; conditions: average of three lots, both days
Procedure: For each 24 h incubation, 50 µL of each medium containing the test article (HM-10/10) were collected at the start (T0) and end of 24 h incubation (T24) and quenched with 300 µL of 1% perchloric acid in methanol and 50 µL of internal standard cocktail (carbutamide, chrysin, and glyburide each at 1.71 µg/mL water). These samples were analyzed to test the stability of HM-10/10 after 24 h incubation with the hepatocytes. The quenched sample plates were stored covered in a −20 °C freezer.

[6] = Metabolic stability in cryopreserved human hepatocytes; assay type: in vitro ADME; conditions: Human hepatocytes 0.5 million cells/mL; for CLint scaled: hepatocytes
[7] = biological target: T2, CYP2B6 (Homo sapiens, UniProt P20813); conditions: microsomes
T2 sequence (P20813 1-491): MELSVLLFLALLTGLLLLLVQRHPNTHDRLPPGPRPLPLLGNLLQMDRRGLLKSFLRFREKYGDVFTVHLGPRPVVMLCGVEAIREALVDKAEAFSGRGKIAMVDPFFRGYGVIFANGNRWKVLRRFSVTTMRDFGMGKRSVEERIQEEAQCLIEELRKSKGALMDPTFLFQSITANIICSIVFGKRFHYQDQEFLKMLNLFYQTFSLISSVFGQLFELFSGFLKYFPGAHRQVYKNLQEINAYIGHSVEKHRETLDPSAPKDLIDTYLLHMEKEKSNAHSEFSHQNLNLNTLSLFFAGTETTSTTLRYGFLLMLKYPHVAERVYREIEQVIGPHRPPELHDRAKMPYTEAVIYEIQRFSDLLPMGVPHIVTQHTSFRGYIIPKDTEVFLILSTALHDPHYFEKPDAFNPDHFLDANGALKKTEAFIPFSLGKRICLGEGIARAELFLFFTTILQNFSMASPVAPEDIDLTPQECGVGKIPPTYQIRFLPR

[8] = Metabolic stability in beagle dog liver microsomes; assay type: in vitro ADME; conditions: for CLint scaled: dog, microsomes, Beagle dog liver microsomes 0.5 mg protein/mL, 2 μM
[9] = Metabolic stability in human liver microsomes; assay type: in vitro ADME
[10] = test system: beagle dog plasma proteins; assay: Protein binding in beagle dog plasma (ultracentrifugation); conditions: Beagle dog plasma (K2EDTA); 2 μM; 2.5 h at 37 °C
[11] = as above; conditions: beagle, dog, plasma (K2EDTA), pH 7.4

Sequence of CYP3A4 (P08684 whole entry): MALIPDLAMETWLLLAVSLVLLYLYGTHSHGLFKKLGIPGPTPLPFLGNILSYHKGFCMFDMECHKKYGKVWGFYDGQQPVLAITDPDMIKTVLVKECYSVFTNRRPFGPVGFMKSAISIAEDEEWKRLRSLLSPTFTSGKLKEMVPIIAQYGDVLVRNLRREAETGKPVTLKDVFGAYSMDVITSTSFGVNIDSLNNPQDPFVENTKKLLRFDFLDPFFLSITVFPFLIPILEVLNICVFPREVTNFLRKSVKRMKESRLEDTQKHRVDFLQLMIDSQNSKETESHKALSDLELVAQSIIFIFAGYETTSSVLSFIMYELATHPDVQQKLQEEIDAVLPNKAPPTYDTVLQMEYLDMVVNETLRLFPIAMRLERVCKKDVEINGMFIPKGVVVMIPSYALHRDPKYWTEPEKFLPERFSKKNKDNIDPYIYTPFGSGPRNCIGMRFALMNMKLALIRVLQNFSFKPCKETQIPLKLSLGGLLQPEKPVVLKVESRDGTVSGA

- % Inhibition at 50 µM No PI + NADPH ([1]; Midazolam (3A4)): 6.6%
- % Inhibition at 50 µM No PI − NADPH ([1]; Midazolam (3A4)): 19.2%
- % Inhibition at 50 µM PI + NADPH ([1]; Midazolam (3A4)): 13.9%
- % Inhibition at 50 µM PI − NADPH ([1]; Midazolam (3A4)): 29.5%
- % Inhibition at 50 µM No PI + NADPH ([1]; Testosterone (3A4)): 6.9%
- % Inhibition at 50 µM No PI − NADPH ([1]; Testosterone (3A4)): −0.7%
- % Inhibition at 50 µM PI + NADPH ([1]; Testosterone (3A4)): 11.3%
- % Inhibition at 50 µM PI − NADPH ([1]; Testosterone (3A4)): 32.2%
- half-life at 2 µM [2]: 82.5 min
- remaining at 2 h, 2 µM [2]: 36.3%
- half-life at 2 µM [3]: 5.68 min
- remaining at 2 h, 2 µM [3]: 23.9%
- % Inhibition at 50 µM No PI + NADPH [4]: −18.0%
- % Inhibition at 50 µM No PI − NADPH [4]: −20.7%
- % Inhibition at 50 µM PI + NADPH [4]: 0.1%
- % Inhibition at 50 µM PI − NADPH [4]: −15.8%
- Average % Stability ([5]; 10 µM): 0.7%
- remaining at 24 h, 2 µM ([5]; human, plated human hepatocytes, three single-donor lots, 2 µM): 0.6%
- remaining at 24 h, 25 µM ([5]; human, plated human hepatocytes, three single-donor lots, 25 µM): 0.3%
- % Remaining at 30 min ([6]; 2 μM): 2.5%
- half-life at 2 µM ([6]; cryopreserved hepatocytes): 5.28 min
- remaining at 0.5 h, 2 µM ([6]; human, cryopreserved hepatocytes, read-out: % Remaining at 30 min): 2.47%
- CLint scaled ([6]; human, 2 μM, read-out: CLint (L/hr/kg) (converted)): 42.5 L/h/kg
- CLint scaled ([6]; human, 2 μM, read-out: CLint (mL/min/kg)): 42.5 L/h/kg
- % Inhibition at 50 µM No PI + NADPH [7]: 17.3%
- % Inhibition at 50 µM No PI − NADPH [7]: 25.2%
- % Inhibition at 50 µM PI + NADPH [7]: 28.4%
- % Inhibition at 50 µM PI − NADPH [7]: 42.2%
- CLint scaled ([8]; read-out: CLint (L/hr/kg) (converted)): 2.83 L/h/kg
- CLint scaled ([8]; read-out: CLint (mL/min/kg)): 2.83 L/h/kg
- half-life at 2 µM ([8]; pooled liver microsomes, pH 7.4, Beagle dog liver microsomes 0.5 mg protein/mL): 33 min
- remaining at 2 h, 2 µM ([8]; pooled liver microsomes, pH 7.4, Beagle dog liver microsomes 0.5 mg protein/mL, read-out: % Remaining at 120 min): 1.5%
- CLint scaled ([9]; Human liver microsomes 0.5 mg protein/mL, 2 μM): 61.5 mL/min/kg
- half-life at 2 µM ([9]; pooled liver microsomes, pH 7.4, Human liver microsomes 0.5 mg protein/mL): 20.3 min
- remaining at 2 h, 2 µM ([9]; pooled liver microsomes, pH 7.4, Human liver microsomes 0.5 mg protein/mL, read-out: % Remaining at 120 min): 1.4%
- % Protein Bound Mean ± SD [10]: 35.2 ± 26.5%
- % Protein Free Mean ± SD [10]: 64.8 ± 26.5%
- fraction unbound at 2.5 h, 2 µM [11]: 0.648 ± 0.265
- remaining at 2.5 h, 2 µM [11]: 29.2%
Sequence: LRKLRKRLLRLVGRQLEEFL [HM-10/10, LRKLRKRLLRLVGRQLEEFL]
